Source: PubChem BioAssay (NCI)
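1) Cells in 96-well plates. 2) Compound, 48 h, 5 concentrations. 3) Linear interpolation between surrounding doses. 4) Unreached endpoint = highest concentration. The concentration for 50% growth inhibition is given as GI50. Definition used: TGI = concentration required for complete inhibition of growth.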

Experiments:
Experiment in all cases: growth of human tumour cells (NCI), 48 h
[1] = test system: NCI-H460 lung
[2] = test system: OVCAR-4 ovarian
[3] = test system: PC-3 prostate
[4] = test system: RPMI-8226 leukemia
[5] = test system: RXF 393 renal
[6] = test system: SF-295 CNS
[7] = test system: ACHN renal
[8] = test system: SR leukemia
[9] = test system: MCF7 breast
[10] = test system: DU-145 prostate
[11] = test system: NCI-H522 lung
[12] = test system: SF-268 CNS
[13] = test system: IGROV1 ovarian
[14] = test system: MOLT-4 leukemia
[15] = test system: UO-31 renal
[16] = test system: OVCAR-3 ovarian
[17] = test system: SNB-19 CNS
[18] = test system: SK-OV-3 ovarian
[19] = test system: SW-620 colon
[20] = test system: HS 578T breast
[21] = test system: HOP-62 NSCLC
[22] = test system: HCC-2998 colon
[23] = test system: K-562 leukemia
[24] = test system: OVCAR-8 ovarian
[25] = test system: A498 renal
[26] = test system: SF-539 CNS
[27] = test system: 786-0 renal
[28] = test system: COLO 205 colon
[29] = test system: T-47D breast
[30] = test system: KM12 colon
[31] = test system: BT-549 breast
[32] = test system: SNB-75 CNS
[33] = test system: LOX IMVI melanoma
[34] = test system: EKVX NSCLC
[35] = test system: CCRF-CEM leukemia
[36] = test system: MDA-MB-435
[37] = test system: UACC-257 melanoma
[38] = test system: CAKI-1 renal
[39] = test system: NCI/ADR-RES ovarian
[40] = test system: SK-MEL-2 melanoma
[41] = test system: SK-MEL-28 melanoma
[42] = test system: MDA-MB-231 breast
[43] = test system: SN12C renal
[44] = test system: UACC-62 melanoma
[45] = test system: HCT-15 colon
[46] = test system: TK-10 renal
[47] = test system: U251 CNS
[48] = test system: HL-60(TB) leukemia
[49] = test system: OVCAR-5 ovarian
[50] = test system: MALME-3M melanoma
[51] = test system: A549 NSCLC
[52] = test system: NCI-H226 lung
[53] = test system: HT29 colon
[54] = test system: SK-MEL-5 melanoma
[55] = test system: M14 melanoma
[56] = test system: HCT-116 colon
[57] = test system: NCI-H23 lung

Nc1c(C(=O)Nc2ccccc2)sc2nc3c(cc12)C(=O)CCC3
GI50 [1]: 0.346 µM
GI50 [2]: 0.81 µM
TGI [2]: > 100 µM
GI50 [3]: 0.389 µM
TGI [3]: > 100 µM
GI50 [4]: 0.303 µM
TGI [4]: > 100 µM
GI50 [5]: 0.19 µM
TGI [5]: 0.619 µM
GI50 [6]: 0.435 µM
TGI [6]: > 100 µM
GI50 [7]: 0.948 µM
TGI [7]: > 100 µM
GI50 [8]: 0.533 µM
TGI [8]: > 100 µM
GI50 [9]: 0.366 µM
TGI [9]: > 100 µM
GI50 [10]: 0.328 µM
TGI [10]: 19.9 µM
GI50 [11]: 0.215 µM
TGI [11]: 1.29 µM
GI50 [12]: 1.02 µM
TGI [12]: > 100 µM
GI50 [13]: 1.01 µM
TGI [13]: > 100 µM
TGI [14]: > 100 µM
GI50 [15]: > 27.3 µM
TGI [15]: > 100 µM
GI50 [16]: 0.264 µM
TGI [16]: 1.22 µM
GI50 [17]: 0.73 µM
TGI [17]: > 100 µM
GI50 [18]: 0.412 µM
TGI [18]: > 100 µM
GI50 [19]: 0.333 µM
TGI [19]: > 100 µM
GI50 [20]: 0.524 µM
TGI [20]: > 72.4 µM
GI50 [21]: 0.745 µM
TGI [21]: > 100 µM
GI50 [22]: 1.2 µM
TGI [22]: > 100 µM
GI50 [23]: 0.287 µM
TGI [23]: > 100 µM
GI50 [24]: 2.46 µM
TGI [24]: > 100 µM
GI50 [25]: 0.282 µM
GI50 [26]: 0.384 µM
TGI [26]: > 26.1 µM
GI50 [27]: 1.27 µM
TGI [27]: > 100 µM
GI50 [28]: 0.364 µM
TGI [28]: 2.99 µM
GI50 [29]: 1.46 µM
TGI [29]: > 100 µM
GI50 [30]: 0.323 µM
TGI [30]: > 100 µM
GI50 [31]: 3.17 µM
TGI [31]: > 100 µM
GI50 [32]: 0.494 µM
TGI [32]: > 88.7 µM
TGI [33]: > 100 µM
GI50 [34]: 0.627 µM
TGI [34]: > 100 µM
GI50 [35]: 0.374 µM
TGI [35]: > 100 µM
GI50 [36]: 0.139 µM
TGI [36]: > 100 µM
GI50 [37]: 0.57 µM
TGI [37]: > 100 µM
GI50 [38]: 0.485 µM
TGI [38]: > 100 µM
GI50 [39]: 0.399 µM
TGI [39]: 10.6 µM
GI50 [40]: 0.35 µM
GI50 [41]: 0.71 µM
TGI [41]: > 100 µM
GI50 [42]: 2.32 µM
TGI [42]: > 100 µM
GI50 [43]: 6.2 µM
TGI [43]: > 100 µM
GI50 [44]: 0.557 µM
TGI [44]: > 100 µM
GI50 [45]: 0.407 µM
TGI [45]: > 100 µM
GI50 [46]: 0.807 µM
TGI [46]: > 100 µM
GI50 [47]: 0.486 µM
TGI [47]: > 41.9 µM
GI50 [48]: 0.587 µM
TGI [48]: > 100 µM
GI50 [49]: 1.28 µM
TGI [49]: > 100 µM
GI50 [50]: 4.66 µM
TGI [50]: > 100 µM
GI50 [51]: 0.436 µM
TGI [51]: > 100 µM
GI50 [52]: 3.91 µM
TGI [52]: > 100 µM
GI50 [53]: 0.354 µM
GI50 [54]: 0.249 µM
TGI [54]: 5.7 µM
GI50 [55]: 0.401 µM
TGI [55]: > 32.9 µM
GI50 [56]: 0.512 µM
TGI [56]: > 100 µM
GI50 [57]: 0.833 µM
TGI [57]: > 100 µM
